Test results as given in ChEMBL document CHEMBL4359930, “Discovery of novel Cyclophilin D inhibitors starting from three dimensional fragments with millimolar potencies” (Bioorg Med Chem Lett, 2019).

Test: Binding affinity to recombinant human CypD K175I mutant (44 to 207 residues) expressed in Escherichia coli cells assessed as dissociation constant by SPR analysis

Row | Structure (SMILES) | Kd [µM]
1 | O=C(NCc1ccc2c(c1)[C@H]1C[C@@H](N2)[C@H](O)CO1)C(=O)N1CCCC1 | > 1500
2 | CSc1ccccc1[C@H]1CCCN1C(=O)CNC(=O)CCc1ccc2c(c1)[C@@H]1C[C@H](N2)[C@H](O)CO1 | 39
3 | O[C@@H]1CO[C@@H]2C[C@H]1Nc1ccc(F)cc12 | 7100
4 | CCN1Cc2cc(NC(=O)CN3C(=O)C4C(C3=O)[C@H]3CC[C@@H]4C3)ccc2NCCC1=O (stereo not given in full) | > 6000
5 | CSc1ccccc1[C@H]1CCCN1C(=O)CN(C)C(=O)NCc1ccc2c(c1)[C@H]1C[C@@H](N2)[C@H](O)CO1 | 7
6 | O=C(O)CN1C(=O)[C@@H]2[C@@H]3CC[C@@H](C3)[C@@H]2C1=O | > 10000
7 | CCN1Cc2cc(CNC(=O)NCC(=O)N3CCC[C@@H]3c3ccccc3SC)ccc2NCCC1=O | 0.18
8 | CCN1Cc2cc(NC(=O)NCC(=O)N3CCC[C@@H]3c3ccccc3SC)ccc2NCCC1=O | 260
9 | O=C(NCc1ccc2c(c1)[C@@H]1C[C@H](N2)[C@H](O)CO1)C(=O)N1CCCC1 | 217
10 | Nc1ccc(CCNC(=O)CN2C(=O)C3C4CCC(C4)C3C2=O)cc1 (stereo not given) | > 200
11 | O=C(CN1C(=O)[C@@H]2[C@@H]3CC[C@@H](C3)[C@@H]2C1=O)NCc1ccc2c(c1)[C@H]1C[C@@H](N2)[C@H](O)CO1 | 0.66
12 | CSc1ccccc1[C@@H]1CCCN1C(=O)C(=O)NCc1ccc2c(c1)[C@H]1C[C@@H](N2)[C@H](O)CO1 | > 240
13 | CCn1nnc(NC(=O)c2ccccc2)n1 | 3900
14 | CCN1Cc2cc(CCC(=O)NCC(=O)N3CCC[C@@H]3c3ccccc3SC)ccc2NCCC1=O | 2.3
15 | O=C(CN1C(=O)[C@@H]2[C@H]3CC[C@H](C3)[C@@H]2C1=O)NCc1ccc2c(c1)[C@H]1C[C@@H](N2)[C@H](O)CO1 | 1.2
16 | Cc1onc(-c2ccncc2)c1C(=O)O | > 10000
17 | O=C(NCc1ccccn1)C(=O)NC1CCCC1 | 1100
18 | CCN1Cc2cc3c(cc2NCCC1=O)OCO3 | 7500
19 | CCN1Cc2cc(CCC(=O)NCCC(=O)N3CCC[C@@H]3c3ccccc3SC)ccc2NCCC1=O | 420
20 | CSc1ccccc1[C@H]1CCCN1C(=O)C(=O)NCc1ccc2c(c1)[C@H]1C[C@@H](N2)[C@H](O)CO1 | 184
